Measured values published in publication PMC5241705 (ACS Infectious Diseases, 2016).
“Also recorded” adds a separate entry of the source.

Key:
[1] = system: Mtb SRMV2.6 attB::guaB2^Y487C; format: cell-based, Mycobacterium tuberculosis
[2] = system: Mtb H37Rv attB::guaB2^Y487C; format: cell-based, Mycobacterium tuberculosis
Mtb GuaB2^Y487C = Mtb GuaB2^Y487C (Mycobacterium tuberculosis, UniProt P9WKI7, Y487C); format: biochemical

For `O=C(C1CCCCC1)N1CCN(S(=O)(=O)c2cccc3cnccc23)CC1` [VCC234718, N-(5-Isoquinolinylsulfonyl)-N’-cyclohexanoyl-piperazine], the MIC90 [1] was >200 µM, the MIC90 [2] was >100 µM and the “inhibition of Mtb GuaB2^Y487C” value (Mtb GuaB2^Y487C) was “inactive; also recorded: refractory to inhibition”.
